According to EP0671905B1, “STABLE PROTEIN: PHOSPHOLIPID COMPOSITIONS AND METHODS” (Amgen Inc., priority 1993, dated 1995):

Assays:
[1] = Tryptophan fluorescence emission spectra of protein:lipid complexes; format: physicochemical; conditions: mole ratio lipid:rhG-CSF 100:1
Description: There are two tryptophan residues in rhG-CSF that are quite sensitive to local environmental conditions. Therefore, analysis was performed to determine the rhG-CSF tryptophan fluorescence when the rhG-CSF is contacted with a liposome. […] An excellent review of tryptophan fluorescence analysis is […], by J. Lakowicz, Chap 11 (Plenum Press, New York, 1983).
Tryptophan fluorescence of the G-CSF:lipid complexes (as described above) was assayed by exciting the samples at 280 nm and while scanning the emission from 285 nm to 420 nm in 1nm increments at a rate of 1 nm/sec. The sample volume was 3 ml and the final concentration of G-CSF was 0.2 mg/ml for all samples. The lipid:G-CSF ratios varied. All fluorescence measurements were carried out using a PTI Alphascan fluorometer (South Brunswick, NJ). All measurements were performed at 25°C and this temperature was maintained through the use of a water-jacketed cuvette holder connected to a circulating water bath. Emission spectra were collected and analyzed using the data software provided by PTI.
In this example, the ability of rhG-CSF to interact with other phospholipids was determined using comparisons of F/FO intensity and emission maximums as described above. In each instance, the mole ratio of lipid:rhG-CSF was 100:1.
In this example, chemically modified G-CSF (pegylated G-CSF (PEG-G-CSF)) and G-CSF obtained as a product of eucaryotic host cell expression (CHO-G-CSF) were tested for their ability to interact with negatively charged lipid vesicles. For the CHO-G-CSF, the determinations were made using comparisons of F/FO intensity and emission maximums (as described in Example 1 above). In each instance, the mole ratio of lipid:protein was 100:1. For the PEG-G-CSF, the determination was based upon circular dichroism analysis.

[2] = Circular dichroism at 222 nm, thermal stability and temperature cycling; format: physicochemical; conditions: for effect on secondary structure of rhG-CSF (circular dichroism): 150:1 lipid:rhG-CSF ratio, heated to 95°C and cooled to 10°C; for thermal stability of GM-CSF (circular dichroism): lipid:GM-CSF ratio 17:1, PBS pH 7.0, heated to 90°C and cooled to 10°C
murine bone marrow cells = assay: In vitro activity: G-CSF dependent uptake of [3H]-thymidine by bone marrow cells; format: cell-based; conditions: lipid mixed with rhG-CSF, lipid:protein ratio 100:1; control untreated rhG-CSF without lipid
Description: In this example, the effect of the rhG-CSF:DOPG interaction as it relates to the biological activity of rhG-CSF was determined. The in vitro activity of rhG-CSF was assayed utilizing the G-CSF dependent uptake of [^3H]-thymidine by murine bone marrow cells as described in Zsebo et al., Immunobiology 172: 175-184 (1986). All activity assays were performed in triplicate. In vivo activity was determined by subcutaneous injection of hamsters (rhG-CSF dose of 100 µg/kg) and measurements of white blood cell (WBC) count.
After heating to 85°C for 10 minutes, rhG-CSF has undetectable activity and the protein precipitates. […] B. The ability of various lipids to stabilize rhG-CSF during freeze drying was also studied. Samples of rhG-CSF in combination with various lipids were freeze dried and assayed (as described above) for activity.

| insertion of rhG-CSF into lipid vesicles (F/FO and emission maximum) [1] | SMILES | effect on emission maximum and fluorescence intensity of rhG-CSF [1] | effect on secondary structure of rhG-CSF (circular dichroism) [2] | thermal stability of GM-CSF (circular dichroism) [2] | retention of rhG-CSF bioactivity after freeze drying (murine bone marrow cells) |
| --- | --- | --- | --- | --- | --- |
| – | CCCCCCCCCCCCCC(=O)OC[C@H](COP(=O)([O-])OCC[N+](C)(C)C)OC(=O)CCCCCCCCCCCCC [DMPC, reference compound] | little if no effect | – | – | – |
| can insert | CCCCCCCCCCCCCC(=O)OCC(COP(=O)(O)OCC(O)CO)OC(=O)CCCCCCCCCCCCC (centres unmarked) [DMPG, dimyristoylphosphatidylglycerol] | – | stabilize the secondary structure of rhG-CSF | recovery of secondary structure after heating | ~100% |
| – | CCCCCCCC/C=C\CCCCCCCC(=O)OC[C@H](COP(=O)([O-])OCC[N+](C)(C)C)OC(=O)CCCCCCC/C=C\CCCCCCCC [DOPC, reference compound] | little if no effect | – | – | – |
| can insert | CCCCCCCC/C=C\CCCCCCCC(=O)OC[C@H](COP(=O)(O)OCC(O)CO)OC(=O)CCCCCCC/C=C\CCCCCCCC (some centres unmarked) [DOPG, dioleoylphosphatidylglycerol] | – | – | – | ~100% |
| – | CCCCCCCCCCCCCCCC(=O)OC[C@H](COP(=O)([O-])OCC[N+](C)(C)C)OC(=O)CCCCCCCCCCCCCCC [DPPC, reference compound] | little if no effect | – | – | – |
| can insert | CCCCCCCCCCCCCCCC(=O)OCC(COP(=O)(O)OCC(O)CO)OC(=O)CCCCCCCCCCCCCCC (centres unmarked) [DPPG, dipalmitoylphosphatidylglycerol] | – | stabilize the secondary structure of rhG-CSF | recovery of secondary structure after heating | ~100% |

| SMILES | insertion of rhG-CSF into lipid vesicles (F/FO and emission maximum) [1] | effect on emission maximum and fluorescence intensity of rhG-CSF [1] | effect on secondary structure of rhG-CSF (circular dichroism) [2] | thermal stability of GM-CSF (circular dichroism) [2] | retention of rhG-CSF bioactivity after freeze drying (murine bone marrow cells) |
| --- | --- | --- | --- | --- | --- |
| CCCCCCCCC=CCCCCCCCC(=O)OCC(COP(=O)(O)OCCNC(=O)CCCC(=O)O)OC(=O)CCCCCCCC=CCCCCCCCC (centres unmarked) [NG-DOPE] | improved insertion of the rhG-CSF than DOPE | – | – | – | – |
